≈ marks a conversion by molar mass, not a printed value. Where two headings read alike, the source gives them in different places.
Legend:
Bacillus subtilis [1] = experiment: Disc test, Bauer-Kirby technique with 10 Mcg. discs; assay type: cell-based; conditions: Bacillus subtilis, ATCC6633, strain ATCC 6633
Source text: (§1) Disc Test Results (Replicate Tests) With The Mutamicins, Sisomicin and
(§2) Bauer-Kirby Technique^1 With 10 Mcg. Discs
(§3) ^1 Bauer, Kirby, Sherris and Turck, American Journal of Clinical

Escherichia coli [2] = experiment: as above; assay type: cell-based; conditions: Escherichia coli, read-out: Zone Size
Source text: as §1, §2, §3

Klebsiella pneumoniae = experiment: as above; assay type: cell-based; conditions: Klebsiella pneumoniae
Source text: as §1, §2, §3

Providence 164 = experiment: as above; assay type: cell-based; conditions: strain 164
Source text: as §1, §2, §3

Pseudomonas aeruginosa [3] = experiment: as above; assay type: cell-based; conditions: Pseudomonas aeruginosa
Source text: as §1, §2, §3

Staphylococcus aureus [4] = experiment: as above; assay type: cell-based; conditions: Staphylococcus aureus
Source text: as §1, §2, §3

Streptococcus pyogenes [5] = experiment: as above; assay type: cell-based; conditions: Streptococcus pyogenes
Source text: as §1, §2, §3

Bacillus subtilis [6] = experiment: MIC in Mueller-Hinton Broth pH 7.2; assay type: cell-based; conditions: ATCC6633, strain ATCC 6633
Source text: (§4) In vitro Activity of the Mutamicins and Sisomicin
(§5) MIC's in Mueller-Hinton Broth pH 7.2

Candida albicans = experiment: MIC in Mueller-Hinton Broth pH 7.2; assay type: cell-based; conditions: pH 7.2
Source text: as §4, §5

Escherichia coli [7] = experiment: MIC in Mueller-Hinton Broth pH 7.2; assay type: cell-based
Source text: as §4, §5

Proteus rettgeri = experiment: MIC in Mueller-Hinton Broth pH 7.2; assay type: cell-based; conditions: Providencia rettgeri, pH 7.2
Source text: as §4, §5

Providence [8] = experiment: MIC in Mueller-Hinton Broth pH 7.2; assay type: cell-based; conditions: strain (Genta. R.) 164
Source text: as §4, §5

Pseudomonas aeruginosa [9] = experiment: MIC in Mueller-Hinton Broth pH 7.2; assay type: cell-based
Source text: as §4, §5

Salmonella typhimurium = experiment: MIC in Mueller-Hinton Broth pH 7.2; assay type: cell-based; conditions: Salmonella enterica, strain B
Source text: as §4, §5

Serratia = experiment: MIC in Mueller-Hinton Broth pH 7.2; assay type: cell-based; conditions: pH 7.2
Source text: as §4, §5

Staphylococcus aureus [10] = experiment: MIC in Mueller-Hinton Broth pH 7.2; assay type: cell-based
Source text: as §4, §5

Streptococcus pyogenes [11] = experiment: MIC in Mueller-Hinton Broth pH 7.2; assay type: cell-based
Source text: as §4, §5

Trichophyton rubrum = experiment: MIC in Mueller-Hinton Broth pH 7.2; assay type: cell-based; conditions: pH 7.2
Source text: as §4, §5

Escherichia coli [12] = experiment: Protection Tests in Mice; assay type: in vivo
Source text: (§6) In vivo Activity of the Mutamicin 1 and Sisomicin
(§7) Protection Tests in Mice

Pseudomonas aeruginosa [13] = experiment: Protection Tests in Mice; assay type: in vivo
Source text: as §6, §7

Staphylococcus = experiment: Protection Tests in Mice; assay type: in vivo; conditions: Staphylococcus Gray, read-out: PD50
Source text: as §6, §7

E. coli = experiment: Activity against resistant strains; assay type: cell-based; conditions: E. coli W677/R55 and LA290/R55
Source text: (§8) In many instances, bacterial resistance is related to the organism's ability to inactivate the antibacterial agent via enzymatic (biochemical) means. Some species inactivate aminoglycosides antibiotics by acetylating the antibacterial agent, others by phosphorylation and still others by adenylylating. Some strains have several different inactivating capabilities. Further, the inactivation reactions occur at a specific site or sites on the antibacterial agent. We have shown by the compounds of this invention that alteration of sites on the antibiotic molecule not directly involved in inactivation processes can nevertheless frustrate these inactivation processes. […] The tables illustrate that the mutamicins include compounds which are active against strains having different mechanisms of inactivation of gentamicin, sisomicin, kanamycin, neomycin and torbramycin. For example, some mutamicins are effective against strains of E. coli which contain adenylylating R factors such as E. coli W677/R55 and LA290/R55. These E. coli strains are resistant to gentamicin, sisomicin and torbramycin. Some are also effective against gentamicin, tobramycin and kanamycin resistant adenylylating strains of Klebsiella pneumoniae and also kanamycin, neomycin phosphorylating strains of E. coli and Klebsiella pneumoniae. Further, some mutamicins are effective against gentamicin and sisomicin resistant strains of Pseudomonas aeruginosa and gentamicin, sisomicin, tobramycin resistant Providence which is sensitive to kanamycin. Thus, the mutamicins afford a means for combatting strains of bacteria which have already developed a variety of mechanisms for resisting the action of many of the antibiotics known in the art or currently in commercial use.

Providence [14] = experiment: Activity against resistant strains; assay type: cell-based; conditions: gentamicin, sisomicin, tobramycin resistant Providence
Source text: as §8

Pseudomonas aeruginosa [15] = experiment: Activity against resistant strains; assay type: cell-based; conditions: gentamicin and sisomicin resistant strains
Source text: as §8

`CN[C@@H]1[C@@H](O)[C@@H](O[C@@H]2[C@@H](O)[C@H](O[C@H]3OC(CN)=CC[C@H]3N)[C@@H](N)C[C@H]2N)OC[C@]1(C)O` [Sisomicin, O-2,6-Diamino-2,3,4,6-tetradeoxy-α-D-glycero-hex-4-eno-pryanosyl(1→4)-O-[3-deoxy-4-C-methyl-3-(methylamino)-B-L-arabinopyranosyl(1→6)] -2-deoxy-D-streptamine, reference compound] showed a zone of inhibition at 10 µg/disc (Bacillus subtilis [1]) of 31 mm, a zone of inhibition at 10 µg/disc (Escherichia coli [2]; ATCC10536, strain ATCC 10536, 10 Mcg. discs) of 28 mm and a zone of inhibition at 10 µg/disc (Escherichia coli [2]) of 15 mm. For the same molecule, the zone of inhibition at 10 µg/disc (Escherichia coli [2]; strain 589, 10 Mcg. discs) was 24 mm, the zone of inhibition at 10 µg/disc (Escherichia coli [2]; strain JR88, 10 Mcg. discs) was 11 mm and the zone of inhibition at 10 µg/disc (Escherichia coli [2]; strain JR90, 10 Mcg. discs) was 0 mm. It also gave a zone of inhibition at 10 µg/disc (Escherichia coli [2]; strain LA290/R55, 10 Mcg. discs) of 13 mm, a zone of inhibition at 10 µg/disc (Escherichia coli [2]; strain Swidinsky 4195, 10 Mcg. discs) of 24 mm and a zone of inhibition at 10 µg/disc (Klebsiella pneumoniae; strain Ad 17) of 22 mm. It also gave a zone of inhibition at 10 µg/disc (Klebsiella pneumoniae; strain Ad 18) of 23 mm, a zone of inhibition at 10 µg/disc (Klebsiella pneumoniae; strain Georgetown 3020) of 13 mm and a zone of inhibition at 10 µg/disc (Klebsiella pneumoniae; strain Georgetown 3694) of 14 mm. It also gave a zone of inhibition at 10 µg/disc (Providence 164) of 13 mm, a zone of inhibition at 10 µg/disc (Pseudomonas aeruginosa [3]; strain Capetown 18) of 14 mm and a zone of inhibition at 10 µg/disc (Pseudomonas aeruginosa [3]; strain D-2) of 24 mm. The zone of inhibition at 10 µg/disc (Pseudomonas aeruginosa [3]; strain St. Michael 413) was 26 mm, the zone of inhibition at 10 µg/disc (Pseudomonas aeruginosa [3]; strain St. Michael 762) was 25 mm and the zone of inhibition at 10 µg/disc (Pseudomonas aeruginosa [3]; strain St. Michael 1262) was 26 mm. The zone of inhibition at 10 µg/disc (Pseudomonas aeruginosa [3]; strain St. Michael 1395) was 26 mm, the zone of inhibition at 10 µg/disc (Pseudomonas aeruginosa [3]; strain Stone 20) was 27 mm and the zone of inhibition at 10 µg/disc (Pseudomonas aeruginosa [3]; strain Stone 39) was 25 mm. For the same molecule, the zone of inhibition at 10 µg/disc (Pseudomonas aeruginosa [3]; strain Stone 130) was 14 mm, the zone of inhibition at 10 µg/disc (Pseudomonas aeruginosa [3]; strain Stone 138) was 10 mm and the zone of inhibition at 10 µg/disc (Staphylococcus aureus [4]; ATCC6538P, strain ATCC 6538P) was 25 mm. It also gave a zone of inhibition at 10 µg/disc (Staphylococcus aureus [4]; strain 59N) of 28 mm, a zone of inhibition at 10 µg/disc (Staphylococcus aureus [4]; strain Wood) of 29 mm and a zone of inhibition at 10 µg/disc (Staphylococcus aureus [4]; strain Ziegler) of 26 mm. The zone of inhibition at 10 µg/disc (Streptococcus pyogenes [5]; strain B-Cruz) was 15 mm, the zone of inhibition at 10 µg/disc (Streptococcus pyogenes [5]; strain C) was 13 mm and the MIC (Bacillus subtilis [6]) was 0.03 µg/mL (≈ 0.067 µM). For the same molecule, the MIC (Candida albicans) was over 25 µg/mL, the MIC (Escherichia coli [7]; ATCC10536, pH 7.2, strain ATCC 10536) was 0.08 µg/mL (≈ 0.179 µM) and the MIC (Escherichia coli [7]; pH 7.2, strain Baker 2) was 0.3 µg/mL (≈ 0.67 µM). For the same molecule, the MIC (Escherichia coli [7]; pH 7.2, strain Fl4-Bk) was 0.3 µg/mL (≈ 0.67 µM), the MIC (Escherichia coli [7]; pH 7.2, strain Genta. adenyl LA290-R55) was 17.5 µg/mL (≈ 39.1 µM) and the MIC (Escherichia coli [7]; pH 7.2, strain Genta. adenyl W677/R55) was 7.5 µg/mL (≈ 16.8 µM). The MIC (Escherichia coli [7]; pH 7.2, strain Kana. phosphor. 589) was 0.8 µg/mL (≈ 1.79 µM), the MIC (Escherichia coli [7]; pH 7.2, strain Kana. phosphor. C-13) was 0.3 µg/mL (≈ 0.67 µM) and the MIC (Escherichia coli [7]; pH 7.2, strain Tobra. R 4195) was 0.8 µg/mL (≈ 1.79 µM). It also gave an MIC (Proteus rettgeri) of 0.8 µg/mL (≈ 1.79 µM), an MIC (Providence [8]) of over 25 µg/mL and an MIC (Pseudomonas aeruginosa [9]; pH 7.2) of over 25 µg/mL. The MIC (Pseudomonas aeruginosa [9]; pH 7.2, strain 762, Mueller-Hinton Broth pH 7.2, read-out: MIC) was 0.3 µg/mL (≈ 0.67 µM), the MIC (Pseudomonas aeruginosa [9]; pH 7.2, strain 1262, Mueller-Hinton Broth pH 7.2, read-out: MIC) was 0.8 µg/mL (≈ 1.79 µM) and the MIC (Pseudomonas aeruginosa [9]; pH 7.2, strain 1395, Mueller-Hinton Broth pH 7.2, read-out: MIC) was 0.08 µg/mL (≈ 0.179 µM). It also gave an MIC (Pseudomonas aeruginosa [9]; pH 7.2, strain D-2, Mueller-Hinton Broth pH 7.2, read-out: MIC) of 0.08 µg/mL (≈ 0.179 µM), an MIC (Pseudomonas aeruginosa [9]; pH 7.2, strain Genta. acetyl Capetown 18, Mueller-Hinton Broth pH 7.2, read-out: MIC) of 7.5 µg/mL (≈ 16.8 µM) and an MIC (Pseudomonas aeruginosa [9]; pH 7.2, strain Genta. acetyl Stone 130, Mueller-Hinton Broth pH 7.2, read-out: MIC) of 17.5 µg/mL (≈ 39.1 µM). The MIC (Pseudomonas aeruginosa [9]; pH 7.2, strain NRRL B3223, Mueller-Hinton Broth pH 7.2, read-out: MIC) was 0.08 µg/mL (≈ 0.179 µM), the MIC (Pseudomonas aeruginosa [9]; pH 7.2, strain Stone 20, Mueller-Hinton Broth pH 7.2, read-out: MIC) was 0.3 µg/mL (≈ 0.67 µM) and the MIC (Pseudomonas aeruginosa [9]; pH 7.2, strain Stone 39, Mueller-Hinton Broth pH 7.2, read-out: MIC) was 0.8 µg/mL (≈ 1.79 µM). The MIC (Pseudomonas aeruginosa [9]; pH 7.2, strain Stone 138, Mueller-Hinton Broth pH 7.2, read-out: MIC) was 7.5 µg/mL (≈ 16.8 µM), the MIC (Salmonella typhimurium) was 0.3 µg/mL (≈ 0.67 µM) and the MIC (Serratia) was 0.8 µg/mL (≈ 1.79 µM). It also gave an MIC (Staphylococcus aureus [10]; ATCC6538P, pH 7.2, strain ATCC 6538P) of 0.08 µg/mL (≈ 0.179 µM), an MIC (Staphylococcus aureus [10]; pH 7.2, strain 59N) of 0.03 µg/mL (≈ 0.067 µM) and an MIC (Staphylococcus aureus [10]; pH 7.2, strain 1118) of 3 µg/mL (≈ 6.7 µM). The MIC (Staphylococcus aureus [10]; pH 7.2, strain Grey) was 3 µg/mL (≈ 6.7 µM), the MIC (Staphylococcus aureus [10]; pH 7.2, strain Wood) was 0.03 µg/mL (≈ 0.067 µM) and the MIC (Staphylococcus aureus [10]; pH 7.2, strain Ziegler) was 0.08 µg/mL (≈ 0.179 µM). It also gave an MIC (Streptococcus pyogenes [11]; pH 7.2, strain 27) of 3 µg/mL (≈ 6.7 µM), an MIC (Streptococcus pyogenes [11]; pH 7.2, strain Alvarez) of 3 µg/mL (≈ 6.7 µM) and an MIC (Streptococcus pyogenes [11]; pH 7.2, strain C) of 3 µg/mL (≈ 6.7 µM). The MIC (Streptococcus pyogenes [11]; pH 7.2, strain Cruz) was 3 µg/mL (≈ 6.7 µM), the MIC (Streptococcus pyogenes [11]; pH 7.2, strain Karipeds) was 0.8 µg/mL (≈ 1.79 µM) and the MIC (Streptococcus pyogenes [11]; pH 7.2, strain Labay) was 3 µg/mL (≈ 6.7 µM). For the same molecule, the MIC (Trichophyton rubrum) was over 25 µg/mL, the ED50 (Escherichia coli [12]; Escherichia coli 6922, read-out: PD50) was 2 mg/kg and the ED50 (Escherichia coli [12]; Escherichia coli Sc., read-out: PD50) was 1.7 mg/kg. For the same molecule, the ED50 (Pseudomonas aeruginosa [13]; Pseudomonas aeruginosa 2552, read-out: PD50) was 2.8 mg/kg, the ED50 (Pseudomonas aeruginosa [13]; Pseudomonas aeruginosa 2557, read-out: PD50) was 2.7 mg/kg and the ED50 (Pseudomonas aeruginosa [13]; sc, Pseudomonas aeruginosa Sc., read-out: PD50) was 1.1 mg/kg. For the same molecule, the ED50 (Staphylococcus) was 1.8 mg/kg, the “activity against strains containing adenylylating R factors” value (E. coli) was “resistant” and the “activity against resistant Providence” value (Providence [14]) was “resistant”. The “activity against resistant strains” value (Pseudomonas aeruginosa [15]) was “resistant”.

Source: US4011390A, “Semi-synthetic aminocyclitol aminoglycoside antibiotics and methods for the preparation thereof” (Schering-Plough Corporation, priority 1974, dated 1977)
